In patent publication US10556907B2 (AbbVie Inc., priority 2015, dated 2020):
Counter-ions that a name gives are not always drawn.

Experiments:
Experiment in all cases: Method 1: intracellular Ca2+ release (FLIPR, Calcium 5) in recombinant CHO-K1 cells
Format in all cases: cell-based
[1] = biological target: T1, human S1PR4 receptor (Homo sapiens, UniProt O95977); conditions: (1): determined with method 1; read-out: S1P4 EC50
T1 construct: host or cells: CHO-K1
T1 sequence (O95977 1-384): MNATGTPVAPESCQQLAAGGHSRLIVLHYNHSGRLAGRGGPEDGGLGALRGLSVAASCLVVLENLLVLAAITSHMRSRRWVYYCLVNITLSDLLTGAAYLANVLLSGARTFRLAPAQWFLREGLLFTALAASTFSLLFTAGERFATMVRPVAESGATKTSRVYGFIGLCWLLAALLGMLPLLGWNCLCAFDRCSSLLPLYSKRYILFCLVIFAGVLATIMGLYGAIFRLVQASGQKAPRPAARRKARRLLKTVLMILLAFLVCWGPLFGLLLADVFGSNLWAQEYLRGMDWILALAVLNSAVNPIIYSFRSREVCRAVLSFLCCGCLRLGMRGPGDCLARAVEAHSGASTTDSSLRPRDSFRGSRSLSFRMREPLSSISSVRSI
Summary of the method: (§1)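 Potency here reflects Ca2+ release in recombinant CHO-K1 cells carrying Gq/i5, measured by Calcium 5 fluorescence on FLIPR at RT in pH 7.4 Hepes-buffered HBSS with probenecid. EC50 values were fitted after scaling to phospho-fingolimod.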

[2] = biological target: T2, human S1PR5 receptor (Homo sapiens, UniProt Q9H228); conditions: agonist potency, determined with method 1 (symbols A-D); read-out: S1P5 EC50 range
T2 construct: host or cells: CHO-K1
Summary of the method: as §1

[3] = biological target: T3, human S1PR3 receptor (Homo sapiens, UniProt Q99500); conditions: (1): determined with method 1; read-out: S1P3 EC50
T3 construct: host or cells: CHO-K1
Summary of the method: as §1

[4] = biological target: T4, human S1PR1 receptor (Homo sapiens, UniProt P21453); conditions: (1): determined with method 1; read-out: S1P1 EC50
T4 construct: host or cells: CHO-K1
Summary of the method: as §1

T4 sequence (P21453 whole entry): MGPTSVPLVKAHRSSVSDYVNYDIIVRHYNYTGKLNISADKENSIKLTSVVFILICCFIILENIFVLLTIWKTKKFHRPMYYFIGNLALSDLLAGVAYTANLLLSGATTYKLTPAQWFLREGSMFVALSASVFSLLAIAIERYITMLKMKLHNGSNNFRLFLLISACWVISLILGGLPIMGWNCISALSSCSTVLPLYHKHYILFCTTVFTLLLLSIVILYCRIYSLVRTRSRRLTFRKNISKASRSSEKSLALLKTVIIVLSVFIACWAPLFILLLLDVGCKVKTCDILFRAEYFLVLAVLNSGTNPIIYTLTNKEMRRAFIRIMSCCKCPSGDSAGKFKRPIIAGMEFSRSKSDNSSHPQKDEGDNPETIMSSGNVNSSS
T3 sequence (Q99500 whole entry): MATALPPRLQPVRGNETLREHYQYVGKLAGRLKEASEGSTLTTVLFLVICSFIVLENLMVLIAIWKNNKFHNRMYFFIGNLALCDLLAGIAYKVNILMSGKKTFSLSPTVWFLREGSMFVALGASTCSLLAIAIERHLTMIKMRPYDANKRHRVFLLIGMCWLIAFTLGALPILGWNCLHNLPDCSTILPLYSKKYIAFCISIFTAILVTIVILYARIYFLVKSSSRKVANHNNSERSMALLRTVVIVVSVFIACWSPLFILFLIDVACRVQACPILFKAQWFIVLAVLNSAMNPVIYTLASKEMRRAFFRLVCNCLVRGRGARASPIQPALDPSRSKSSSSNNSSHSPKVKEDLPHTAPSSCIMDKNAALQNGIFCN
T2 sequence (Q9H228 whole entry): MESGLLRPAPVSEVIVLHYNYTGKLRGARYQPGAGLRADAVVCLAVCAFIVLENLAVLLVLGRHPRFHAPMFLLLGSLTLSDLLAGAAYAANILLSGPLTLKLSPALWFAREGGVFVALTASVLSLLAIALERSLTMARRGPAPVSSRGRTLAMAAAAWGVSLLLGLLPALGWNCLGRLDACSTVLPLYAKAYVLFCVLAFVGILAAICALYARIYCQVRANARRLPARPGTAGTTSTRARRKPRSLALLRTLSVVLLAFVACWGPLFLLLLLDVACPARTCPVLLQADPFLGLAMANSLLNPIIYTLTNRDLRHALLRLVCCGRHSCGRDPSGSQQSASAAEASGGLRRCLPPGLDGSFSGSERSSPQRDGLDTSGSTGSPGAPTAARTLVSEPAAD

SMILES	EC50 [1] [nM]	EC50 [2] [nM]	EC50 [3] [nM]	EC50 [4] [nM]
Cc1ccccc1C#Cc1ncc2c(n1)CCN(C1CC(C(=O)O)C1)C2 (stereo not shown) [Compound 55, 3-(2-(o-tolylethynyl)-7,8-dihydropyrido[4,3-d]pyrimidin-6(5H)-yl)cyclobutanecarboxylic acid]	> 1000	1000 to 10000	> 1000	> 1000
C[C@@H](CC(=O)O)CN1CCc2nc(-c3ccc(C(F)(F)Cc4ccc(Cl)cc4)cc3)ncc2C1 (single isomer, unassigned) [Compound 266, 4-(2-(4-(2-(4-chlorophenyl)-1,1-difluoroethyl)phenyl)-7,8-dihydropyrido[4,3-d]pyrimidin-6(5H)-yl)-3-methylbutanoic acid]	> 1000	10 to 100	> 1000	> 1000
Cc1ccccc1COc1ccc(-c2ncc3c(n2)CCN(C[C@@H](C)CC(=O)O)C3)cc1C [Compound 249]	> 1000	< 10	> 1000	> 1000
O=C(O)C1(CN2CCc3nc(-c4ccc(Cc5ccccc5)cc4)ncc3C2)CC1 [Compound 218, 1-((2-(4-benzylphenyl)-7,8-dihydropyrido[4,3-d]pyrimidin-6(5H)-yl)methyl)cyclopropanecarboxylic acid]	> 1000	1000 to 10000	> 1000	> 1000
O=C(O)CCN1CCc2nc(-c3ccc(OCc4ccccc4OC(F)F)cc3)ccc2C1 [Compound 163, 3-(2-(4-((2-difluoromethoxybenzyl)oxy)phenyl)-7,8-dihydro-1,6-naphthyridin-6(5H)-yl)propanoic acid]	> 1000	< 10	> 1000	> 1000
O=C(O)C1CC(N2CCc3nc(C#Cc4cc(F)cc(F)c4)ncc3C2)C1 (stereo not shown) [Compound 61, 3-(2-((3,5-difluorophenyl)ethynyl)-7,8-dihydropyrido[4,3-d]pyrimidin-6(5H)-yl)cyclobutanecarboxylic acid]	> 1000	1000 to 10000	> 1000	> 1000
Cc1cccc(COc2ccc(-c3ncc4c(n3)CCN(CC(C)CC(=O)O)C4)c(F)c2)c1C (stereo not shown) [Compound 231, 4-[2-[4-[(2,3-dimethylphenyl)methoxy]-2-fluoro-phenyl]-7,8-dihydro-5H-pyrido[4,3-d]pyrimidin-6-yl]-3-methyl-butanoic acid 2,2,2-trifluoroacetic acid salt]	> 1000	< 10	> 1000	> 1000
CCOc1ccc(C#Cc2ncc3c(n2)CCN(C2CC(C(=O)O)C2)C3)cc1 (stereo not shown) [Compound 56, 3-(2-((4-ethoxyphenyl)ethynyl)-7,8-dihydropyrido[4,3-d]pyrimidin-6(5H)-yl)cyclobutanecarboxylic acid]	> 1000	1000 to 10000	> 1000	> 1000
CC(CC(=O)O)CN1CCc2nc(-c3ccc(C(F)(F)Cc4ccc(Cl)cc4)cc3)ncc2C1 (stereo not shown) [Compound 265, 4-(2-(4-(2-(4-chlorophenyl)-1,1-difluoroethyl)phenyl)-7,8-dihydropyrido[4,3-d]pyrimidin-6(5H)-yl)-3-methylbutanoic acid]	> 1000	10 to 100	> 1000	> 1000
O=C(O)C1CC(N2CCc3nc(C#Cc4ccccc4Cl)ccc3C2)C1 (stereo not shown) [Compound 126, 3-(2-((2-chlorophenyl)ethynyl)-7,8-dihydro-1,6-naphthyridin-6(5H)-yl)cyclobutanecarboxylic acid]	> 1000	1000 to 10000	> 1000	> 1000
O=C(O)CCN1CCc2nc(-c3ccc(OCc4cccc(F)c4)cc3F)ccc2C1 [Compound 145, 3-(2-(2-fluoro-4-((3-fluorobenzyl)oxy)phenyl)-7,8-dihydro-1,6-naphthyridin-6(5H)-yl)propanoic acid]	> 1000	10 to 100	> 1000	> 1000

More lines, now with the values ahead:

EC50 [1] [nM]	EC50 [2] [nM]	EC50 [3] [nM]	EC50 [4] [nM]	SMILES
> 1000	< 10	> 1000	> 1000	O=C(O)CCN1CCc2nc(-c3ccc(OCc4ccccc4OC(F)(F)F)cc3)ccc2C1 [Compound 155, 3-(2-(4-((2-trifluoromethoxybenzyl)oxy)phenyl)-7,8-dihydro-1,6-naphthyridin-6(5H)-yl)propanoic acid]
> 1000	< 10	> 1000	> 1000	CCc1cccc(Cl)c1COc1ccc2c(n1)CCN(C1CC(C(=O)O)C1)C2 (stereo not shown) [Compound 118, 3-(2-((2-chloro-6-ethylbenzyl)oxy)-7,8-dihydro-1,6-naphthyridin-6(5H)-yl)cyclobutanecarboxylic acid]
> 1000	< 10	> 1000	> 1000	CC(CN1CCc2nc(-c3ccc(OCc4ccc(Cl)c(Cl)c4)cc3)ncc2C1)C(=O)O (stereo not shown) [Compound 14, 3-(2-(4-((3,4-dichlorobenzyl)oxy)phenyl)-7,8-dihydropyrido[4,3-d]pyrimidin-6(5H)-yl)-2-methylpropanoic acid]
> 1000	100 to 1000	> 1000	> 1000	O=C(O)C1CC(N2CCc3nc(C#Cc4ccc(OCc5ccccc5)cc4)ccc3C2)C1 (stereo not shown) [Compound 125, 3-(2-((4-(benzyloxy)phenyl)ethynyl)-7,8-dihydro-1,6-naphthyridin-6(5H)-yl)cyclobutanecarboxylic acid]
> 1000	< 10	> 1000	> 1000	CC(CC(=O)O)CN1CCc2nc(-c3ccc(OCc4cccc(Cl)c4)cc3F)ncc2C1 (stereo not shown) [Compound 232, 4-(2-(4-((3-chlorobenzyl)oxy)-2-fluorophenyl)-7,8-dihydropyrido[4,3-d]pyrimidin-6(5H)-yl)-3-methylbutanoic acid]
> 1000	< 10	> 1000	< 1000	CC(CCN1CCc2nc(-c3ccc(OCc4ccccc4)cc3)c(F)cc2C1)C(=O)O (stereo not shown) [Compound 180, 4-(2-(4-(benzyloxy)phenyl)-3-fluoro-7,8-dihydro-1,6-naphthyridin-6(5H)-yl)-2-methylbutanoic acid]
> 1000	< 10	< 1000	> 1000	O=C(O)CCN1CCc2nc(-c3ccc(OCc4cccc(Cl)c4)cc3)cnc2C1 [Compound 179, 3-(2-(4-((3-chlorobenzyl)oxy)phenyl)-7,8-dihydropyrido[3,4-b]pyrazin-6(5H)-yl)propanoic acid]
> 1000	1000 to 10000	> 1000	> 1000	O=C(O)C1CC(N2CCc3nc(C#Cc4ccc(Cl)cc4)ccc3C2)C1 (stereo not shown) [Compound 120, 3-(2-((4-chlorophenyl)ethynyl)-7,8-dihydro-1,6-naphthyridin-6(5H)-yl)cyclobutanecarboxylic acid]
> 1000	< 10	> 1000	> 1000	O=C(O)CCN1CCc2nc(-c3ccc(OCc4ccc(OC(F)F)cc4)cc3)ncc2C1 [Compound 83, 3-(2-(4-((4-(difluoromethoxy)benzyl)oxy)phenyl)-7,8-dihydropyrido[4,3-d]pyrimidin-6(5H)-yl)propanoic acid]
> 1000	< 10	> 1000	> 1000	CC(CC(=O)O)CN1CCc2nc(-c3ccc(OCc4c(Cl)cccc4Cl)cc3)ncc2C1 (stereo not shown) [Compound 243, 4-[2-[4-[(2,6-dichlorophenyl)methoxy]phenyl]-7,8-dihydro-5H-pyrido[4,3-d]pyrimidin-6-yl]-3-methyl-butanoic acid 2,2,2-trifluoroacetic acid salt]
> 1000	< 10	> 1000	> 1000	O=C(O)CCN1CCc2nc(-c3ccc(OCc4ccccc4C(F)F)cc3)ccc2C1 [Compound 165, 3-(2-(4-((2-difluoromethylbenzyl)oxy)phenyl)-7,8-dihydro-1,6-naphthyridin-6(5H)-yl)propanoic acid]
> 1000	1000 to 10000	> 1000	> 1000	O=C(O)CCCN1CCc2nc(Cc3ccccc3)ncc2C1 [Compound 50, 4-(2-benzyl-7,8-dihydropyrido[4,3-d]pyrimidin-6(5H)-yl)butanoic acid]
< 1000	100 to 1000	< 1000	< 1000	CCc1cccc(Cl)c1COc1ccc(-c2ncc3c(n2)CCN(CC(=O)O)C3)cc1 [Compound 35, 2-(2-(4-((2-chloro-6-ethylbenzyl)oxy)phenyl)-7,8-dihydropyrido[4,3-d]pyrimidin-6(5H)-yl)acetic acid]
> 1000	1000 to 10000	> 1000	> 1000	O=C(O)C1CC(N2CCc3nc(C#Cc4ccccc4)ccc3C2)C1 (stereo not shown) [Compound 119, 3-(2-(phenylethynyl)-7,8-dihydro-1,6-naphthyridin-6(5H)-yl)cyclobutanecarboxylic acid]
